What was measured:
IAV H1N1 = IAV H1N1 inhibition assay on MDCK cells; conditions: Influenza A virus
Procedure: MDCK cells were pre-plated in 96-well plates. The following day, increasing concentrations of compounds were mixed with IAV (MOI 0.05) and incubated for 1 h at 37°C. The mixtures were subsequently added to the cells for 1 h at 37°C, after a washout cells were overlaid with medium for 16 h at 37°C. Cells were then fixed and subjected to specific immunostaining using a Flu A monoclonal antibody (Merck 5001) in order to visualize infected cells. Percentages of infection were calculated by comparing numbers of infected cells in treated and untreated wells.

[1] = Cell viability MTS assay, conditions of the HRoV assay; type: cell-based; conditions: African green monkey, MA104 cells
Procedure: (§1) Cell viability was measured using the MTS [3- (4,5-dimethylthiazol-2-yl)-5- (3 carboxy methoxy phenyl)-2-(4-sulfophenyl)-2H-tetrazolium] assay. Cell cultures were seeded in 96-well plates and were incubated with different concentrations of compounds in duplicate under the same experimental conditions described for the antiviral assays, (i.e. if the incubation time of the compound on cells was carried for 2 hours and then the evaluation of the antiviral activity was done 72h later, the same timing was used for the cytotoxicity assays, in order to exclude any toxicity effect in the antiviral evaluation). Cell viability was determined using the CellTiter 96 Proliferation Assay Kit (Promega, Madison, WI, USA) according to the manufacturer's instructions. Absorbances were measured using a Microplate Reader (Model 680, BIORAD) at 490 nm. The effect on cell viability at different concentrations of the compound was expressed as a percentage, by comparing absorbances of treated cells with those of cells incubated with culture medium and equal volumes of vehicle. The 50% cytotoxic concentrations (CC50) and 95% confidence intervals (CIs) were determined using Prism software (Graph-Pad Software, San Diego, CA). For compound 9d a continuous incubation of 1, 2, 3 and 4 days on Vero cells was carried in order to evaluate the toxicity after long exposure the results are shown in S1 Fig and Fig 3. […]

[2] = test system: HSV-2 acyclovir resistant strain; test: microbe, parasite or virus in culture; type: cell-based
[3] = Cell viability MTS assay, conditions of the RSV assay; type: cell-based; conditions: human, Hep-2 cells
Procedure: as §1

HSV-2 = test: Entry assay; type: cell-based; conditions: 10 μM, HSV-2 MOI 10
Procedure: Since the observed irreversible effect can be exerted at different stages of viral infection, we investigated more in detail if compound 9d produced a physical disruption of the virus, thus preventing its attachment to the cells or a successive irreversible modification. We performed entry and binding assays, evaluating the amount of bound virus through immunostaining or qPCR. […] On the contrary, when entry assays were performed, it was possible to observe a reduction in the amount of virus associated to the cells (Fig 7D). With this assay, the signal from the virus could be related to virus in the cytoplasm or blocked in the endosomes, since the treatment with acidic glycine is affecting only the virus at the surface of the cell. […]
Cells were plated on coverslips and the following day the binding or entry protocol described above was applied. […] Rhodamine conjugated anti-rabbit (Santa Cruz) was then added on cells for 1 h at 37°C following 3 washes coverslips were mounted on microscope glasses and observed with Zeiss LSM510 fluorescence microscope (Zeiss, Oberkochen, Germany) and images were acquired.

HPV-16 = HPV-16 inhibition assay on HeLa cells; type: cell-based, HPV-16 pseudovirions
Procedure: (§2) HeLa cells were plated in 96-well plates. […] The GFP-expressing infected cells were observed under an inverted Zeiss LSM510 fluorescence microscope (Zeiss, Oberkochen, Germany) and the percentages of infection were calculated by comparing GFP positive cells in treated and untreated wells.

ZIKV = ZIKV plaquing efficiency assay; type: cell-based, Zika virus (PRVABC59); conditions: Zika virus, ZIKAV
[4] = Cell viability MTS assay, conditions of the HCMV assay; type: cell-based; conditions: human, HELF cells
Procedure: as §1, with “vehicle.” for “vehicle. The 50% cytotoxic concentrations (CC50) and 95% confidence intervals (CIs) were determined using Prism software (Graph-Pad Software, San Diego, CA). For compound 9d a continuous incubation of 1, 2, 3 and 4 days on Vero cells was carried in order to evaluate the toxicity after long exposure the results are shown in S1 Fig and Fig 3.”
HELF cells were pre-plated in a 96-well plate. […] After five days incubation, cells were observed under an inverted Zeiss LSM510 fluorescence microscope (Zeiss, Oberkochen, Germany) and the percentages of infection were calculated by comparing GFP positive cells in treated and untreated wells.

in vitro = conditions: African green monkey
[5] = Cell viability MTS assay, conditions of the HPV-16 and Ad5 assays; type: cell-based; conditions: human, HeLa cells; conditions of HPV-16 assay
Procedure: as §1, with “vehicle.” for “vehicle. The 50% cytotoxic concentrations (CC50) and 95% confidence intervals (CIs) were determined using Prism software (Graph-Pad Software, San Diego, CA). For compound 9d a continuous incubation of 1, 2, 3 and 4 days on Vero cells was carried in order to evaluate the toxicity after long exposure the results are shown in S1 Fig and Fig 3.”
as §2

RSV = RSV inhibition assay on Hep-2 cells; type: cell-based, RSV strain A2; conditions: human respiratory syncytial virus
Procedure: HeP-2 cells were pre-plated in a 96-well plate. […] 72 h later cells were fixed and subjected to specific immunostaining using an RSV monoclonal antibody (Ab35958; Abcam, Cambridge, United Kingdom) in order to visualize syncytia.

[6] = Cell viability MTS assay, conditions of the IAV assay; type: cell-based, Canine; conditions: dog, MDCK cells
Procedure: Cell viability was measured using the MTS [3- (4,5-dimethylthiazol-2-yl)-5- (3 carboxy methoxy phenyl)-2-(4-sulfophenyl)-2H-tetrazolium] assay. Cell cultures were seeded in 96-well plates and were incubated with different concentrations of compounds in duplicate under the same experimental conditions described for the antiviral assays, (i.e. if the incubation time of the compound on cells was carried for 2 hours and then the evaluation of the antiviral activity was done 72h later, the same timing was used for the cytotoxicity assays, in order to exclude any toxicity effect in the antiviral evaluation). Cell viability was determined using the CellTiter 96 Proliferation Assay Kit (Promega, Madison, WI, USA) according to the manufacturer's instructions. Absorbances were measured using a Microplate Reader (Model 680, BIORAD) at 490 nm. The effect on cell viability at different concentrations of the compound was expressed as a percentage, by comparing absorbances of treated cells with those of cells incubated with culture medium and equal volumes of vehicle. The 50% cytotoxic concentrations (CC50) and 95% confidence intervals (CIs) were determined using Prism software (Graph-Pad Software, San Diego, CA). For compound 9d a continuous incubation of 1, 2, 3 and 4 days on Vero cells was carried in order to evaluate the toxicity after long exposure the results are shown in S1 Fig and Fig 3.

## CC(C)c1ccc(CCN2C(=O)/C(=C/c3ccc(-c4ccc(C(=O)O)c(O)c4)o3)SC2=S)cc1 [Compound 9d, (Z)-2-hydroxy-4-(5-((3-(4-isopropylphenethyl)-4-oxo-2-thioxothiazolidin-5-ylidene)methyl)furan-2-yl)benzoic acid]
IAV H1N1; read-out: EC50 (95% C.I.)
  EC50: 66.1 nM
IAV H1N1; read-out: EC90 (95% C.I.)
  EC90: 301 nM
[1]
  CC50 at 1 h: 156000 nM
[2]; Human alphaherpesvirus 2, read-out: EC50 (95% C.I.)
  EC50: 1.6 nM
[2]; Human alphaherpesvirus 2, read-out: EC90 (95% C.I.)
  EC90: 24.3 nM
[3]
  CC50 at 3 h: 17000 nM
HSV-2
  amount of virus associated to the cells: reduction
HPV-16
  antiviral activity against non-enveloped virus: inactive
other
  melting point: 259 °C (dec.)
ZIKV; read-out: EC50 (95% C.I.)
  EC50: 69.9 nM
ZIKV; read-out: EC90 (95% C.I.)
  EC90: 147 nM
[4]
  CC50 at 3 h: 5240 nM
In vitro
  CC50: 24800 nM
[5]
  CC50 at 72 h: 94200 nM
RSV; read-out: EC50 (95% C.I.)
  EC50: 54.8 nM
RSV; read-out: EC90 (95% C.I.)
  EC90: 221 nM
[6]
  CC50 at 1 h: 136000 nM
